This note sets out measurements from patent US11524003B2, “Alpha-amino esters of hydroxypropylthiazolidine carboxamide derivative and salt form, crystal polymorph thereof” (ObsEva S.A., priority 2016, dated 2022).

One series deals with Caco-2 cell monolayer. Put plainly: Bidirectional permeability across Caco-2 cell monolayers. In kind it is in vitro ADME, human. Here is the method: Compound I was dissolved in HBSS buffer (1% DMSO final concentration) at the concentrations of 1.5, 3 and 6 μM. Each concentration/sampling time was run in duplicate well. The test was performed in a gradient pH: the apical compartment (mucosal) was at pH 6.5, the basolateral compartment (serosal) was at pH 7.4.
Apical to basolateral (A→B, mucosal to serosal) transport: 200 μL of each concentration of compound I was added to the apical compartment and 400 μL of HBSS was added to the basolateral compartment. The plates were incubated at 37° C. An aliquot of the basolateral compartment was sampled after 60 and 120 min (t=60 and t=120). An aliquot of the apical compartment was sampled at the starting time (t=0) and after 120 min. (t=120).
Basolateral to apical (B→A, serosal to mucosal) transport: 400 μL of each concentration of compound I was added to the basolateral compartment and 200 μL of HBSS was added to the apical compartment. The plates were incubated at 37° C. An aliquot of the apical compartment was sampled after 60 and 120 min (t=60 and t=120). An aliquot of the basolateral compartment was sampled at the starting time (t=0) and after 120 min. (t=120). All samples were analyzed by LC/MS monitoring both compound I and the appearance of compound II.
Compound II was dissolved in HBSS buffer (1% DMSO final concentration) at the concentrations of 1.5, 3 and 6 μM. Each concentration/sampling time was run in duplicate well. The test was performed in a gradient pH: the apical compartment (mucosal) was at pH 6.5, the basolateral compartment (serosal) was at pH 7.4.
Apical to basolateral (A→B, mucosal to serosal) transport: 200 μL of each concentration of compound II was added to the apical compartment and 400 μL of HBSS was added to the basolateral compartment. The plates were incubated at 37° C. An aliquot of the basolateral compartment was sampled after 60 and 120 min (t=60 and t=120). An aliquot of the apical compartment was sampled at the starting time (t=0) and after 120 min. (t=120).
Basolateral to apical (B→A, serosal to mucosal) transport: 400 μL of each concentration of compound II was added to the basolateral compartment and 200 μL of HBSS was added to the apical compartment. The plates were incubated at 37° C. An aliquot of the apical compartment was sampled after 60 and 120 min (t=60 and t=120). An aliquot of the basolateral compartment was sampled at the starting time (t=0) and after 120 min. (t=120). All samples were analyzed by LC/MS monitoring compound II.
On the technique in general: Passage across Caco-2 layers is used to estimate intestinal permeability.

The nature of series [1]: In vivo conversion of compound I to compound II. On the procedure: The invention is based on the discovery that compound I ((3S)-3-({[(2S)-3-(biphenyl-4-ylsulfonyl)-1,3-thiazolidin-2-yl]carbonyl}-amino)-3-(4-fluorophenyl)propyl L-valinate, represented by formula I, below) and salts thereof are converted in vivo to 3-([1,1′-biphenyl]-4-ylsulfonyl)-N-[1-(4-fluorophenyl)-3-hydroxypropyl]-1,3-thiazolidine-2-carboxamide (represented by formula II, below).
Compound II is a competitive and reversible prostaglandin F2α receptor antagonist (human FP2α receptor Ki=6 nM) that is under development for the management of preterm labor by inhibition of premature uterine contractions.

Series [2] can be described thus: Non-specific binding to cell-free transwells. Format: in vitro ADME. The note with it: 1.5, 3 and 6 μM; apical pH 6.5, basolateral pH 7.4. On the procedure:
Non-specific binding and recovery was assessed across cell-free transwells.
Compound I was tested at 1.5, 3 and 6 μM in duplicate cell-free transwells. The test was performed in a pH gradient between the apical and the basolateral compartment. […] The following sampling times were performed: 60 and 120 min for the basolateral compartment (receiver) and 120 min for the apical compartment (donor). Samples obtained were analyzed by LC-MS, both compound I and compound II were monitored in order to assess percent of recovery.

Series [3] in a line: Solubility in water, FaSSIF and FeSSIF. Format: physicochemical.
Series [4] deals with spontaneous uterine contractions. Nature of the series: Spontaneous uterine activity in late-term anaesthetized pregnant rat. The following applies: late-term pregnant rats. Format: in vivo. From the text:
The tocolytic effects of compound I and compound II were investigated in a model of spontaneous uterine activity in late-term (19-21 days of gestation) anaesthetized pregnant rat (Kawarabayashi et al. Am. J. Obstet. Gynecol. 175:1348-1355 (1996) and Shinkai et al. J. Pharm. Pharmacol. 52:1417-1423 (2000)). Briefly, late-term pregnant female rats were anaesthetized with urethane. One pregnant uterine horn was exposed and a polyethylene catheter bearing on the tip a latex balloon filled with saline was inserted into the lumen. The catheter was connected to an amplifying/recording system via a pressure-transducer. […] The percent variation of the AUC values relative to the spontaneous uterine response observed after each compound administration was calculated in comparison to the value recorded before the first dose-administration (basal value). The effect of compound I or compound II was evaluated by comparing pre- and post-treatment luminal uterine pressure values. For the oral administration the same computation procedure was applied at different time points after treatment. Statistical differences between treatment groups at each time-point were determined by using one-way ANOVA followed by Tukey test. Both compounds intravenously or orally administered were able to markedly reduce spontaneous uterine

Series [5] is described as follows: Stability in HBSS buffer of the Caco-2 experiments. Format: in vitro ADME. The following applies: HBSS buffer (2% DMSO final concentration) at 37° C. for 60 and 120 minutes. On the procedure: Stability of both compound I and compound II was assessed during the test. […] An aliquot of each solution was sampled at time zero (t=0) to assess the starting concentrations of the compounds. The solutions were incubated at 37° C. for the duration of the transport experiment. An aliquot of each solution was sampled at the end of experiment (t=120) to assess the final concentrations of compound I and compound II. Samples were analyzed by LC-MS.

In a further series the target is T1, PepT1 transporter (Homo sapiens, UniProt P46059).
T1 construct: host or cells: Caco-2
T1 sequence (P46059 1-708): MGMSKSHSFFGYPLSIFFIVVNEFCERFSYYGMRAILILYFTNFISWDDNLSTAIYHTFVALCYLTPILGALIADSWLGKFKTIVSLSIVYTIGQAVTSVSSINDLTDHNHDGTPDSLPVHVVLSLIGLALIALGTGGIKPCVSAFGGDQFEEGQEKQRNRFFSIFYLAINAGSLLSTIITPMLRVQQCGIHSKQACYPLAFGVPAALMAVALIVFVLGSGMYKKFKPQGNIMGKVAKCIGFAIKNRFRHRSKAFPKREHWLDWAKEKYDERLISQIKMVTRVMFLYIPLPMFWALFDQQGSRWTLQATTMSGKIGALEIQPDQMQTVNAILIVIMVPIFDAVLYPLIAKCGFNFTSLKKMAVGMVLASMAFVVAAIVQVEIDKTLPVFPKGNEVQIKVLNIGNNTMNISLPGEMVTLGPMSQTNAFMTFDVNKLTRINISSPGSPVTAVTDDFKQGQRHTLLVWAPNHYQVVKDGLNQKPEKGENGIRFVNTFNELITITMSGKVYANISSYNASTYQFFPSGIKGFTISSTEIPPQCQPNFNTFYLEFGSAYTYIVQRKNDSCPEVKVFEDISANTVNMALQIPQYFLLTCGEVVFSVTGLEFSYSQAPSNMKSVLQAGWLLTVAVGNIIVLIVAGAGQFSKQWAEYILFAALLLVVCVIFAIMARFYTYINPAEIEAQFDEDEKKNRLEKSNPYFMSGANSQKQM
Put plainly: Mucosal-to-serosal transport in Caco-2 after pre-treatment with PepT1 substrate Gly-Sar. Format: in vitro ADME. On the procedure: The differentiated cells were pre-treated for 30 min. with 10 mM of Gly-Sar in order to block the active transporter PepT1.
Compound I was dissolved in HBSS buffer (1% DMSO final concentration) at the concentrations of […]. Each concentration/sampling time was run in duplicate well. The test was performed in a gradient pH: the apical compartment (mucosal) was at pH 6.5, the basolateral compartment (serosal) was at pH 7.4.
Apical to basolateral (A→B, mucosal to serosal) transport: 200 μL of each concentration of compound I was added to the apical compartment and 400 μL of HBSS was added to the basolateral compartment. The plates were incubated at 37° C. An aliquot of the basolateral compartment was sampled after 60 and 120 min (t=60 and t=120). An aliquot of the apical compartment was sampled at the starting time (t=0) and after 120 min. (t=120). All samples were analyzed by LC/MS monitoring both compound I and the appearance of compound II.

≈ marks a conversion by molar mass, not a printed value. Like-named read-outs stand apart in the source and are kept apart here.

Consider `CC(C)[C@H](N)C(=O)OCC[C@H](NC(=O)[C@@H]1SCCN1S(=O)(=O)c1ccc(-c2ccccc2)cc1)c1ccc(F)cc1` [Compound I, (3S)-3-({[(2S)-3-(biphenyl-4-ylsulfonyl)-1,3-thiazolidin-2-yl]carbonyl}-amino)-3-(4-fluorophenyl)propyl L-valinate], for which the “Conversion of compound I into compound II in Caco-2 test” value in the series with Caco-2 cell monolayer is on record as “confirmed”. In addition, the “Compound I in receiving (apical) compartment, basolateral to apical” value with Caco-2 cell monolayer (60 and 120 minutes) was “not detected”. For the same molecule, in the series on Caco-2 cell monolayer (60 and 120 minutes), the “Compound I in receiving (basolateral) compartment, apical to basolateral” value is “not detected”. Also, the “Recovery of compound I in apical compartment at end of apical to basolateral experiment” value in the series with Caco-2 cell monolayer (120 min) is “low recovery”. Also, the “Passage through the Caco-2 cell monolayer” value in the series on Caco-2 cell monolayer (bi-directional test) is “did not pass through the cell monolayer”. Moreover, in series [1], the “Conversion to compound II after gastro-intestinal tract administration” value is on record as “rapidly converted to compound II”. In series [2], the “Non-specific binding in the Caco-2 test system without cells” value is “excluded”. Moreover, the solubility in series [3] (FaSSIF, pH 6.5 (fasted state), read-out: Solubility in FaSSIF pH 6.5) was 70 µg/mL (≈ 117 µM); in series [3] (FeSSIF, pH 5.0 (fed state), read-out: Solubility in FeSSIF pH 5.0), 90 µg/mL (≈ 150 µM). In addition, in series [4], the “Effect on spontaneous uterine contraction (FIG. 2)” value was “dose-dependent and reversible effect”. Also, the “Stability in HBSS buffer” value in series [5] was “stable”. For the same molecule, on PepT1 transporter, the “PepT1 mediation of transport across Caco-2 monolayers” value is “likely not mediated by PepT1”. For the same molecule, the “Compound I in receiving compartment after Gly-Sar pre-treatment” value on PepT1 transporter (10 mM Gly-Sar, A→B, 60 and 120 min) was “not detected”.

The solubility is how much of the substance goes into solution per volume.
